From patent US20070269384A1, “Use of perfluoroalkyl-containing metal complexes as contrast media for diagnosis of Alzheimer's disease” (priority 2006, published 2007)

Key:
[1] = Critical micelle formation concentration (CMC) by tensiometry; assay type: physicochemical
Description: In aqueous systems, these amphiphilic molecules show the properties that are characteristic of standard surfactants (such as, e.g., sodium dodecyl sulfate, SDS). Thus, they reduce the surface tension of the water. By tensiometry, the so-called CMC (critical micelle formation concentration in mol/l) can be determined. To this end, the surface tension is determined based on the concentration of the substance to be measured. The CMC can be calculated from the course of the surface tension (c) function that is obtained. The critical micelle formation concentration of the compounds according to the invention should be <10^−3 mol/l, preferably <10^−4 mol/l.
(§1) Both the determination of CMC and the photon correlation spectroscopy are described in H.-D. Dorfler, “Grenzflächen- and Kolloidchemie [Interface and Colloid Chemistry],” Weinheim, New York, Basel, Cambridge, Tokyo, VSH 1994.

[2] = Proton relaxivity R1 in bovine plasma (Minispec P 20); assay type: physicochemical; details: in plasma at 40° C., magnetic field strength 0.47 Tesla
Description: As a third criterion for especially suitable MR contrast media, the proton relaxivity (relaxivity) in plasma (R1) at 40° C. and a field strength of 0.47 Tesla is used. The relaxivity, which is indicated in [l/mmol*s], is the quantitative measurement for the shortening of the relaxation time T1 of the protons. For the purpose according to the invention, the relaxivity must be as high as possible and must be >10 l/mmol*s, preferably >13 l/mmol*s, especially preferably >15 l/mmol*s.
The relaxivity R1 [l/mmol*s] of the MR contrast media according to the invention was determined with the Minispec P 20 device of the Bruker Company. The measurements were made at 40° C. and a field strength of 0.47 Tesla. 8 measuring points were recorded in each T1 sequence (180°-T1-90°, inversion recovery). As a medium, bovine plasma of the Kraeber Company was used. The contrast medium concentrations [mmol/l] in the preparations were between 0.30 and 1.16.

amyloid plaques = assay: MRT visualization of Alzheimer lesions after intravenous administration in APP-23 mice; assay type: in vivo; details: 0.5 mmol of Gd/kg i.v., up to 60 minutes after administration, 7T, localization confirmed by Puchtler's Congo red stain
Description: MRT Visualization of Alzheimer Lesions After Intravenous Administration of Contrast Medium in APP-23 Mice
The images of FIG. 1 show MR images of the brain before as well as up to 60 minutes after intravenous administration of 0.5 mmol of Gd/kg of body weight of metal complex 13 (MK13) in APP-23 mice (mice with genetically-induced Alzheimer's disease). […] The localization of the amyloid-containing structures was confirmed by means of Puchtler's Congo red stain. With this test, the suitability of the compounds according to the invention as in-vivo markers for amyloid plaques in the brains of mice with Alzheimer's disease could be shown.

[3] = Hydrodynamic micelle diameter 2 Rh by photon-correlation spectroscopy; assay type: physicochemical
Text: The amphiphilic compounds according to the invention are combined in solution and are present as aggregates. The size (2 Rh) of such aggregates (e.g., micelles, rods, oblates, etc.) can be determined with the aid of photon-correlation spectroscopy (PCS).
As a second criterion for preferably usable metal complexes, therefore, the hydrodynamic micelle diameter 2 Rh, which must be >1 nm, is used. Those perfluoroalkyl-containing metal complexes, whose 2 Rh≧3 nm, quite especially preferably >4 nm, are especially suitable according to the invention.
as §1

Row | Compound | CMC (Critical Micelle Formation Concentration) [1] [mol/L] | R1 (Relaxivity) [2] [L/mmol/s] | MR signal in the amyloid plaques of the diseased brains (T1-weighted spin echo images) (amyloid plaques) | 2 Rh (Hydrodynamic Micelle Diameter) [3] [nm]
1 | CC(C(=O)NCC(=O)NCCCC[C@H](NC(=O)CO[C@H]1O[C@H](CO)[C@@H](O)[C@H](O)[C@@H]1O)C(=O)N1CCN(S(=O)(=O)C(F)(F)C(F)(F)C(F)(F)C(F)(F)C(F)(F)C(F)(F)C(F)(F)C(F)(F)F)CC1)N1CCN(CC(=O)[O-])CCN(CC(=O)[O-])CCN(CC(=O)[O-])CC1.[Gd+3] (stereo partly drawn) [MK 13, gadolinium complex of 6-N-[1,4,7-tris(carboxylatomethyl)-1,4,7,10-tetraazacyclododecane-10-N-(pentanoyl-3-aza-4-oxo-5-methyl-5-yl)]-2-N-[1-O-α-D-carbonylmethyl-manno-pyranose]-L-lysine-[1-(4-perfluorooctylsulfonyl)-piperazine]-amide] | 2.5e-06 | 15.9 | strong signal increase | 4.4
2 | gadolinium complex of 1,4,7-tris{1,4,7-tris(N-(carboxylatomethyl)-10-[N-1-methyl-3,6-diaza-2,5,8-trioxooctane-1,8-diyl)]-1,4,7,10-tetraazacyclododecane, Gd complex}-10-[N-2H, 2H, 4H, 4H, 5H, 5H-3-oxa-perfluoro-tridecanoyl]-1,4,7,10-tetraazacyclododecane [MK 12] | 0.00089 | 19.5 |  | 2.2
